Measurements taken from patent publication US12319640B2, “Cyclic diones as herbicidal compounds” (SYNGENTA CROP PROTECTION AG, priority 2019, dated 2025).

Columns and labels:
Assay in all cases: Glasshouse herbicide test, pre- and post-emergence
Type in all cases: in vivo
[1] = tested on: Alopecurus myosuroides (ALOMY); details: 250 g/h, evaluated after 13 days, five-point scale; for percentage damage caused to the plant, ALOMY POST: post-emergence; for percentage damage caused to the plant, ALOMY PRE: pre-emergence
Experimental: (§1) Seeds of a variety of test species are sown in standard soil in pots (Lolium perenne (LOLPE), Setaria faberi (SETFA), Alopecurus myosuroides (ALOMY), Echinochloa crus-galli (ECHCG), Avena fatua (AVEFA)). After cultivation for one day (pre-emergence) or after 8 days cultivation (post-emergence) under controlled conditions in a glasshouse (at 24/16° C., day/night; 14 hours light; 65% humidity), the plants are sprayed with an aqueous spray solution derived from the formulation of the technical active ingredient in acetone/water (50:50) solution containing 0.5% Tween 20 (polyoxyethelyene sorbitan monolaurate, CAS RN 9005-64-5). Compounds are applied at 250 g/h. The test plants are then grown in a glasshouse under controlled conditions in a glasshouse (at 24/16° C., day/night; 14 hours light; 65% humidity) and watered twice daily. After 13 days for pre and post-emergence, the test is evaluated for the percentage damage caused to the plant. The biological activities are shown in the following table on a five-point scale (5=80-100%; 4=60-79%; 3=40-59%; 2=20-39%; 1=0-19%).

[2] = tested on: Avena fatua (AVEFA); details: 250 g/h, evaluated after 13 days, five-point scale; for percentage damage caused to the plant, AVEFA POST: post-emergence; for percentage damage caused to the plant, AVEFA PRE: pre-emergence
Experimental: as §1

[3] = tested on: Echinochloa crus-galli (ECHCG); details: 250 g/h, evaluated after 13 days, five-point scale; for percentage damage caused to the plant, ECHCG POST: post-emergence; for percentage damage caused to the plant, ECHCG PRE: pre-emergence
Experimental: as §1

[4] = tested on: Lolium perenne (LOLPE); details: 250 g/h, evaluated after 13 days, five-point scale; for percentage damage caused to the plant, LOLPE POST: post-emergence; for percentage damage caused to the plant, LOLPE PRE: pre-emergence
Experimental: as §1

[5] = tested on: Setaria faberi (SETFA); details: 250 g/h, evaluated after 13 days, five-point scale; for percentage damage caused to the plant, SETFA POST: post-emergence; for percentage damage caused to the plant, SETFA PRE: pre-emergence
Experimental: as §1

Compound	percentage damage caused to the plant, ALOMY POST [1]	percentage damage caused to the plant, ALOMY PRE [1]	percentage damage caused to the plant, AVEFA POST [2]	percentage damage caused to the plant, AVEFA PRE [2]	percentage damage caused to the plant, ECHCG POST [3]	percentage damage caused to the plant, ECHCG PRE [3]	percentage damage caused to the plant, LOLPE POST [4]	percentage damage caused to the plant, LOLPE PRE [4]	percentage damage caused to the plant, SETFA POST [5]	percentage damage caused to the plant, SETFA PRE [5]
CC#Cc1cc(C)c(C2C(=O)CC3(CCC(C(=O)NC)C3)CC2=O)c(C)c1 (stereo not shown) [Compound 1.018]	5 (5=80-100%)	5 (5=80-100%)	5 (5=80-100%)	5 (5=80-100%)	5 (5=80-100%)	5 (5=80-100%)	5 (5=80-100%)	5 (5=80-100%)	5 (5=80-100%)	5 (5=80-100%)
CC#Cc1cc(C)c(C2C(=O)CC3(CCC(NC(=O)COC(F)F)CC3)CC2=O)c(C)c1 (stereo not shown) [Compound 2.008]	5 (5=80-100%)	5 (5=80-100%)	5 (5=80-100%)	5 (5=80-100%)	5 (5=80-100%)	5 (5=80-100%)	5 (5=80-100%)	5 (5=80-100%)	5 (5=80-100%)	5 (5=80-100%)
CC#Cc1cc(C)c(C2C(=O)CC3(CCC(NC(=O)NC(C)(C)C)CC3)CC2=O)c(C)c1 (stereo not shown) [Compound 2.021]	5 (5=80-100%)	5 (5=80-100%)	5 (5=80-100%)	4 (4=60-79%)	5 (5=80-100%)	5 (5=80-100%)	5 (5=80-100%)	5 (5=80-100%)	5 (5=80-100%)	5 (5=80-100%)
CC#Cc1cc(C)c(C2C(=O)CC3(CCC(NC(=O)C(=O)NC)CC3)CC2=O)c(C)c1 (stereo not shown) [Compound 2.007]	5 (5=80-100%)	5 (5=80-100%)	5 (5=80-100%)	5 (5=80-100%)	5 (5=80-100%)	5 (5=80-100%)	5 (5=80-100%)	5 (5=80-100%)	5 (5=80-100%)	5 (5=80-100%)
CC(=O)NC1CCC2(CC1)CC(=O)C(c1c(C)cc(-c3ncc(F)cn3)cc1C)C(=O)C2 (stereo not shown) [Compound 2.028]	5 (5=80-100%)	5 (5=80-100%)	5 (5=80-100%)	4 (4=60-79%)	5 (5=80-100%)	5 (5=80-100%)	5 (5=80-100%)	5 (5=80-100%)	5 (5=80-100%)	5 (5=80-100%)
CC#Cc1cc(C)c(C2C(=O)CC3(CCC(NC(=O)COC)CC3)CC2=O)c(C)c1 (stereo not shown) [Compound 2.020]	5 (5=80-100%)	5 (5=80-100%)	5 (5=80-100%)	5 (5=80-100%)	5 (5=80-100%)	5 (5=80-100%)	5 (5=80-100%)	5 (5=80-100%)	5 (5=80-100%)	5 (5=80-100%)
CC(=O)NC1CCC2(CC1)CC(=O)C(c1c(C)cc(-c3ccc(C#N)cn3)cc1C)C(=O)C2 (stereo not shown) [Compound 2.030]	5 (5=80-100%)	4 (4=60-79%)	5 (5=80-100%)	5 (5=80-100%)	5 (5=80-100%)	5 (5=80-100%)	5 (5=80-100%)	5 (5=80-100%)	5 (5=80-100%)	5 (5=80-100%)
